Assay: solvent given as SMILES
[1] = in O=P(c1ccccc1)(c1ccccc1)c1ccccc1Oc1ccccc1P(=O)(c1ccccc1)c1ccccc1
[2] = in c1cc(-c2cccc(-n3c4ccccc4c4ccccc43)c2)cc(-n2c3ccccc3c3ccccc32)c1

Compound: CC(=O)OC[C@H]1O[C@@H](OCC#Cc2ccc(C3=C4C(C)=CC(/C=C/c5ccc(N(C)C)cc5)=[N+]4[B-](F)(F)n4c(/C=C/c5ccc(N(C)C)cc5)cc(C)c43)cc2)[C@H](OC(C)=O)C(OC(C)=O)[C@@H]1OC(C)=O (stereo partly specified)
- fluorescence lifetime (in CC#N): 2.4 ns

Compound: CCC1(CC)c2cc(-c3cccs3)ccc2-c2c1c1c(c3c2C(CC)(CC)c2cc(-c4cccs4)ccc2-3)C(CC)(CC)c2cc(-c3cccs3)ccc2-1
- fluorescence lifetime (in C1CCOC1): 2.1 ns

Compound: CC1=CC(C)=[N+]2C1=Cc1c3ccccc3c(C#Cc3ccsc3)n1[B-]2(F)F
- fluorescence lifetime (in CCCCCC): 5.54 ns
- fluorescence lifetime (in CCCCCCCCO): 4.91 ns
- fluorescence lifetime (in CCOC(C)=O): 5.21 ns
- fluorescence lifetime (in CN(C)C=O): 4.8 ns

Compound: CC1(C)c2ccccc2N(c2ccc3c(c2)c2cc(N4c5ccccc5C(C)(C)c5ccccc54)ccc2c2nc(C#N)c(C#N)nc32)c2ccccc21
- fluorescence lifetime (in O=P(c1ccccc1)(c1ccccc1)c1cccc(-c2cc(-n3c4ccccc4c4ccccc43)cc(-n3c4ccccc4c4ccccc43)c2)n1): 53.7 ns

Compound: COc1ccc2cc3c(C)cc(=O)oc3cc2c1
- fluorescence lifetime (in CC#N): 0.35 ns
- fluorescence lifetime (in CCO): 4.2 ns
- fluorescence lifetime (in CCOC(C)=O): 0.066 ns
- fluorescence lifetime (in CO): 6.7 ns
- fluorescence lifetime (in ClC(Cl)Cl): 0.57 ns
- fluorescence lifetime (in OCC(F)(F)F): 13 ns

Compound: CCCCCCCC(=O)Oc1ccc2c3cccc4c(OC(=O)CCCCCCC)ccc(c5cccc1c52)c43
- fluorescence lifetime (in C1CCOC1): 4.35 ns
- fluorescence lifetime (in Cc1ccccc1): 3.72 ns
- fluorescence lifetime (in ClC(Cl)(Cl)Cl): 3.89 ns
- fluorescence lifetime (in ClC(Cl)Cl): 4.16 ns
- fluorescence lifetime (in ClCCl): 4.34 ns
- fluorescence lifetime (in c1ccncc1): 3.88 ns

Compound: c1ccc(Nc2nc(Nc3ccccc3)nc(Nc3cc4ccc5cccc6ccc(c3)c4c56)n2)cc1
- fluorescence lifetime (in CCCCCCC): 102 ns

Compound: CCCCCCCCCCCCN1C(=O)c2c(c3ccc4cc(-c5ccc(C)cc5)c(OC)cc4c3c3c2ccc2cc(-c4ccc(C)cc4)c(OC)cc23)C1=O
- fluorescence lifetime (in ClCCl): 6.2 ns

Compound: Cc1cc(=O)oc2cc3c4ccc(C(C)(C)C)cc4c4cc(C(C)(C)C)ccc4c3cc12
- fluorescence lifetime (in ClC(Cl)Cl): 1.3 ns

Compound: CCOc1ccc(/C=C/c2nc(N3CCOCC3)c3c([n+]2[O-])CCCC3)cc1
- fluorescence lifetime (in ClCCl): 8.2 ns

Compound: COc1ccc2c(c1)c1cc(OC)ccc1n2-c1ccc(S(=O)(=O)c2ccc(-n3c4ccc(OC)cc4c4cc(OC)ccc43)cc2)cc1
- fluorescence lifetime (in Cc1ccccc1): 11 ns

Compound: c1ccc(N2N=C(c3c4ccccc4cc4ccccc34)CC2c2ccc3ccc4cccc5ccc2c3c45)cc1 (stereo unspecified)
- fluorescence lifetime (in ClCCl): 1.17 ns

Compound: c1ccc(-c2cc(-c3ccc(N4c5ccccc5C(c5ccccc5)(c5ccccc5)c5ccccc54)cc3)nc(-c3ccccc3)n2)cc1
- fluorescence lifetime [1]: 8.02 ns

Compound: CC(O)CC1=N/C(=C\c2cccc(N(C)C)c2)C(=O)N1C (stereo unspecified)
- fluorescence lifetime (in C1CCOC1): 13.2 ns
- fluorescence lifetime (in CC#N): 5.2 ns
- fluorescence lifetime (in CCCCCC): 18.9 ns

Compound: O=c1oc2ccccc2cc1-c1cccc(-c2cc3ccccc3oc2=O)c1
- fluorescence lifetime (in ClC(Cl)Cl): 0.4 ns

Compound: CC1(C)CC(/C=C/c2ccc(-n3cccn3)cc2)=CC(=C(C#N)C#N)C1
- fluorescence lifetime (in CCO): 0.05 ns

Compound: Cc1ccc(C2=C3C=CC(c4ccccc4)=[N+]3[B-](F)(F)n3c2ccc3-c2ccccc2)cc1
- fluorescence lifetime (in C1CCCCC1): 1.56 ns
- fluorescence lifetime (in C1CCOC1): 1.4 ns
- fluorescence lifetime (in C1COCCO1): 1.59 ns
- fluorescence lifetime (in CCOC(C)=O): 1.37 ns
- fluorescence lifetime (in CO): 1.22 ns
- fluorescence lifetime (in Cc1ccccc1): 2.17 ns
- fluorescence lifetime (in ClC(Cl)Cl): 1.97 ns

Compound: COc1cc2c(cc1/C=C/C1=CC(=C(C#N)C#N)CC(C)(C)C1)c1ccccc1n2C
- fluorescence lifetime (in C1CCOC1): 6.48 ns
- fluorescence lifetime (in CC#N): 10.4 ns
- fluorescence lifetime (in CCO): 7.78 ns
- fluorescence lifetime (in CCOC(C)=O): 6.38 ns
- fluorescence lifetime (in CN(C)C=O): 9.14 ns
- fluorescence lifetime (in CS(C)=O): 8.27 ns
- fluorescence lifetime (in Cc1ccccc1): 8.3 ns
- fluorescence lifetime (in ClC(Cl)Cl): 9.43 ns
- fluorescence lifetime (in ClCCl): 6.7 ns

Compound: CCNc1cc2oc(=O)cc(C)c2cc1C
- fluorescence lifetime (in CC#N): 3.5 ns

Compound: CCCCCCCCCCCCCCCCOc1cc(C#Cc2ccc3ccccc3c2-c2c(C#Cc3cc(OCCCCCCCCCCCCCCCC)c(C#Cc4ccc(C=C(C#N)C#N)cc4)cc3OCCCCCCCCCCCCCCCC)ccc3ccccc23)c(OCCCCCCCCCCCCCCCC)cc1C#Cc1ccc(C=C(C#N)C#N)cc1
- fluorescence lifetime (in Brc1ccccc1): 2.8 ns
- fluorescence lifetime (in C1CCCCC1): 2.02 ns
- fluorescence lifetime (in C1CCOC1): 1.25 ns
- fluorescence lifetime (in C1COCCO1): 3.06 ns
- fluorescence lifetime (in CCCCCC): 2.15 ns
- fluorescence lifetime (in CCCCCCCCO): 0.79 ns
- fluorescence lifetime (in CCCCOCCCC): 2.74 ns
- fluorescence lifetime (in CCOC(C)=O): 1.51 ns
- fluorescence lifetime (in CCOCC): 3.29 ns
- fluorescence lifetime (in Cc1ccccc1): 2.59 ns
- fluorescence lifetime (in ClC(Cl)(Cl)Cl): 2.16 ns
- fluorescence lifetime (in ClC(Cl)Cl): 2.35 ns
- fluorescence lifetime (in ClCCl): 0.79 ns

Compound: CC(C)(C)c1ccc2c(c1)sc1[n+]2[B-](F)(F)n2c(c3cccc4c(Br)ccc2c43)=N1
- fluorescence lifetime (in ClCCl): 5 ns

Compound: CCCCC(CC)COc1ccc2nc(-c3ccc(-c4cccs4)s3)sc2c1 (stereo unspecified)
- fluorescence lifetime (in ClCCl): 0.42 ns

Compound: CC1(C)c2ccccc2N(c2ccc3c(c2)c2cc(N4c5ccccc5C(C)(C)c5ccccc54)ccc2c2nc4ccccc4nc32)c2ccccc21
- fluorescence lifetime [2]: 58 ns

Compound: Cc1cc(C)c2nc3c(=O)n(C)c(=O)nc-3n(C)c2c1
- fluorescence lifetime (in CC#N): 3.9 ns

Compound: Cc1ccc(-c2oc3cccc4c5c(-c6ccc(C)cc6)/c(=N/S(=O)(=O)C(F)(F)F)oc6cccc(c2c34)c65)cc1
- fluorescence lifetime (in ClC(Cl)Cl): 5.4 ns

Compound: COc1nc(Nc2cc3ccc4cccc5ccc(c2)c3c45)nc(OC)n1
- fluorescence lifetime (in CCCCCCC): 112 ns

Compound: Cc1csc(C)c1C1=C(c2c(C)sc(-c3ccc(-c4nc(-c5ccccc5)c(-c5ccccc5)[nH]4)cc3)c2C)C(F)(F)C(F)(F)C1(F)F
- fluorescence lifetime (in C1CCOC1): 0.42 ns

Compound: Cc1ccc2c(nc3c(=O)n(C)c(=O)nc-3n2C)c1C
- fluorescence lifetime (in CC#N): 3.9 ns

Compound: CCCCc1ccc2ccc3c(CCCC)ccc4ccc1c2c43
- fluorescence lifetime (in CCCCCC): 57.8 ns
- fluorescence lifetime (in CO): 70.6 ns
- fluorescence lifetime (in ClCCl): 42 ns

Compound: Cn1c(=O)cc(C(=O)c2ccccc2)c2sc(-c3ccc(C(F)(F)F)cc3)cc21
- fluorescence lifetime (in ClCCl): 1.66 ns

Compound: COc1ccc(C2=C(C)C3=C(c4c(-c5ccccn5)nc5ccccn45)c4c(C)c(-c5ccc(OC)cc5)c(C)n4[B-](F)(F)[N+]3=C2C)cc1
- fluorescence lifetime (in ClCCl): 3.5 ns

Compound: N#CC(C#N)=C(/C=C/c1ccc(N(c2ccccc2)c2ccccc2)cc1)c1ccc2c3c(cccc13)CC2
- fluorescence lifetime (in C1CCOC1): 3.5 ns
- fluorescence lifetime (in CC#N): 1.22 ns
- fluorescence lifetime (in CC(C)=O): 1.04 ns
- fluorescence lifetime (in CCOC(C)=O): 3.01 ns
- fluorescence lifetime (in CN(C)C=O): 1.02 ns
- fluorescence lifetime (in CO): 2.1 ns
- fluorescence lifetime (in Cc1ccccc1): 2.26 ns
- fluorescence lifetime (in ClC(Cl)Cl): 6.54 ns

Compound: CCN(CC)c1cccc(C=O)c1
- fluorescence lifetime (in CC#N): 11.7 ns
- fluorescence lifetime (in CC(C)O): 1.47 ns
- fluorescence lifetime (in CCCCCC): 5.95 ns
- fluorescence lifetime (in CCOC(C)=O): 14.3 ns
- fluorescence lifetime (in CS(C)=O): 21.9 ns
- fluorescence lifetime (in Cc1ccccc1): 16.2 ns
- fluorescence lifetime (in ClCCl): 26.6 ns

Compound: c1cc2c3c(cccc3c1)C(N1CCOCCOCCOCCOCC1)=N2
- fluorescence lifetime (in CC#N): 0.55 ns

Compound: CCN(CC)c1ccc2cc(-c3nc4ccccc4n3-c3ccccc3)c(=O)oc2c1
- fluorescence lifetime (in ClCCl): 13.2 ns

Compound: CC1(C)c2ccccc2N(c2ccc(-c3cnc(C#N)nc3)cc2)c2ccccc21
- fluorescence lifetime (in N#Cc1ccc2c(c1)c1ccccc1n2-c1cccc(-n2c3ccccc3c3ccccc32)c1): 15.7 ns

Compound: N#CCc1ccccc1-c1cc2ccccc2oc1=O
- fluorescence lifetime (in ClC(Cl)Cl): 1.4 ns

Compound: COc1cc(N(c2ccccc2)c2ccccc2)ccc1C=C(C#N)C#N
- fluorescence lifetime (in C1COCCO1): 0.04 ns
- fluorescence lifetime (in CC#N): 0.02 ns
- fluorescence lifetime (in CC(C)=O): 0.05 ns
- fluorescence lifetime (in CCOC(C)=O): 0.07 ns
- fluorescence lifetime (in CN(C)C=O): 0.03 ns
- fluorescence lifetime (in CO): 0.02 ns
- fluorescence lifetime (in Cc1ccccc1): 0.03 ns
- fluorescence lifetime (in ClC(Cl)Cl): 0.1 ns
- fluorescence lifetime (in ClCCl): 0.06 ns

Compound: N#C/C(=C\c1ccncc1)c1nc(-c2ccccc2)cs1
- fluorescence lifetime (in CC#N): 4.85 ns

Compound: COc1c2ccccc2c(OC)c2c1c1cc(C)ccc1n2C
- fluorescence lifetime (in C1CCCCC1): 24.6 ns
- fluorescence lifetime (in CC#N): 31.1 ns
- fluorescence lifetime (in CO): 29.8 ns
- fluorescence lifetime (in ClCCl): 27.6 ns

Compound: N#Cc1c(-n2c3ccccc3c3ccccc32)c(-n2c3ccc(-c4ccccc4)cc3c3cc(-c4ccccc4)ccc32)c(-n2c3ccccc3c3ccccc32)c(-n2c3ccc(-c4ccccc4)cc3c3cc(-c4ccccc4)ccc32)c1-n1c2ccccc2c2ccccc21
- fluorescence lifetime (in Cc1ccccc1): 5.8 ns
- fluorescence lifetime [2]: 4.5 ns

Compound: COc1ccc(C#Cc2ccc(C#N)cc2)cc1
- fluorescence lifetime (in C1COCCO1): 0.33 ns
- fluorescence lifetime (in CC#N): 0.76 ns
- fluorescence lifetime (in CCCCCC): 0.34 ns
- fluorescence lifetime (in CCCCCCC): 0.35 ns
- fluorescence lifetime (in CCCO): 0.6 ns
- fluorescence lifetime (in CCOC(C)=O): 0.38 ns
- fluorescence lifetime (in CS(C)=O): 1.1 ns
- fluorescence lifetime (in ClC(Cl)Cl): 0.38 ns
- fluorescence lifetime (in ClCCl): 0.46 ns

Compound: c1ccc(N(c2ccccc2)c2ccc(-c3ccc4c(c3)C3(c5ccccc5Sc5ccccc53)c3cc(-c5ccc(N(c6ccccc6)c6ccccc6)cc5)ccc3-4)cc2)cc1
- fluorescence lifetime (in ClCCl): 1.2 ns

Compound: CCN1/C(=C\c2c(-c3ccc(N(C)C)cc3)c(=O)c2=O)C=Cc2ccccc21
- fluorescence lifetime (in C1CCCCC1): 1 ns
- fluorescence lifetime (in Cc1ccccc1): 1.85 ns
- fluorescence lifetime (in ClCCl): 0.1 ns

Compound: O=C(c1ccc(-n2c3ccccc3c3cc(-n4c5ccccc5c5ccccc54)ccc32)cc1)c1ccc(-n2c3ccccc3c3cc(-n4c5ccccc5c5ccccc54)ccc32)cn1
- fluorescence lifetime [1]: 62 ns

Compound: CC(C)[Si](C#Cc1ccc(C#C[Si](C(C)C)(C(C)C)C(C)C)c2nc3ccccc3nc12)(C(C)C)C(C)C
- fluorescence lifetime (in ClCCl): 0.37 ns

Compound: CCCCCCCCCCCCN1C(=O)c2c(c3ccc4cc(-c5ccc(C#N)cc5)c(OC)cc4c3c3c2ccc2cc(-c4ccc(C#N)cc4)c(OC)cc23)C1=O
- fluorescence lifetime (in ClCCl): 6.3 ns

Compound: COc1ccc(N(c2ccc(/C=C(\C)c3ccccc3)cc2)c2ccc(/C=C(\C)c3ccccc3)cc2)cc1
- fluorescence lifetime (in Cc1ccccc1): 1.5 ns

Compound: CCCCCCCCCCCCN1C(=O)c2ccc3c4ccc5c6c(ccc(c7ccc(c2c37)C1=O)c64)C(=O)NC5=O
- fluorescence lifetime (in CN(C)C=O): 3 ns

Compound: O=Cc1ccc(C#CC(C#Cc2ccc(C=O)o2)=Cc2ccc(C=C(C#Cc3ccc(C=O)o3)C#Cc3ccc(C=O)o3)cc2)o1
- fluorescence lifetime (in ClC(Cl)Cl): 0.6 ns

Compound: CC(C)(C)c1ccc2cc3c4cccc5cccc(c6cc(C(C)(C)C)cc(c2c1)c63)c54
- fluorescence lifetime (in CC1CCCCC1): 3.6 ns

Compound: CC(=O)c1nc(-c2ccc(N(C)C)cc2)oc1C
- fluorescence lifetime (in CC#N): 1.91 ns
- fluorescence lifetime (in CCO): 1.66 ns
- fluorescence lifetime (in CCOC(C)=O): 1.87 ns
- fluorescence lifetime (in CCOCC): 1.64 ns
- fluorescence lifetime (in ClCCl): 3.68 ns

Compound: CC1(C)c2ccccc2N(c2ccccc2)c2ccc(-c3nc(-c4ccccc4)nc(-c4ccccc4)n3)cc21
- fluorescence lifetime [1]: 4.37 ns

Compound: c1ccc2cc3cnccc3cc2c1
- fluorescence lifetime (in CCO): 20 ns

Source: the Deep4Chem optical property database
